Experiments:
MDA-MB-231 cells [1] = assay: Cytotoxicity, MTS assay after 3 days; format: cell-based, human; conditions: for IC50: 3 days incubation, MTS, determined by the inventors, read-out: IC50 against MDA cells
Procedure: After a total of 3-days, cell growth was evaluated by MTS assay (Promega).

SK-MEL-5 cells = assay: Cytotoxicity, MTS assay after 3 days; format: cell-based; conditions: 3 days incubation, read-out: IC50 against SK-MEL-5 cells
Procedure: Briefly, cells were plated at 1500 (SK-MEL-5) or 5000 (MDA) cells/well in a 96-well plate and allowed to adhere for 1 day. The indicated analogues were added and the cells were incubated for 3 days, when cell growth was evaluated by MTS assay (Promega). Vertical axis represents cell number as a % of no drug treatment controls. Additionally, significant activity was seen against PC-3 cells (see FIGS. 4 and 11).

PC-3 cells [2] = assay: Cytotoxicity / cell growth, MTS assay; format: cell-based, human; conditions: for inhibition of growth of PC-3 cells: 3 days; for IC50: determined by the present inventors
Procedure: Involvement of the pro-apoptotic caspase-3 enzyme in the action of OR 1313 is shown by the experiment represented in FIG. 10. Briefly, PC-3 cells were plated at 1000 cells/well in a 96-well plate and allowed to adhere for 1 day. 10 μM of ORI 1313 and 0, 5, or 15 μM Z-DEVD-fmk, a caspase inhibitor, were added and the cells were incubated for 3 days. Cell growth was evaluated by MTS assay (Promega). Vertical axis represents cell number as a % of no drug treatment controls.

[3] = test system: MES-SA/Dx5 uterine sarcoma cell line; assay: Growth inhibition of multi-drug resistant cells, MTS assay; format: cell-based, human; conditions: inferred from parent vs MDR-1 expressing line
Procedure: An unexpected observation made during the cellular characterization of ORI 1313 and ORI 1327 was their growth inhibitory activity against the multi-drug resistant (MDR) uterine sarcoma cell line, MES-SA/Dx5 (see FIGS. 8A and 8B). Briefly, cells were plated at 1000 cells/well in a 96-well plate and allowed to adhere for 1 day. The indicated analogue was added and the cells were incubated for 3 days when cell growth was evaluated by MTS assay (Promega). Vertical axis represents cell number as a % of no drug treatment controls
The MES-SA/Dx5 cell line was developed by selection on doxorubicin and over-expresses the mRNA of the multi-drug resistance gene (MDR-1). The cells are thus much less sensitive to drugs exported via P-glycoprotein (P-gp). See Harker, W. G. et al. Multi-drug (pleiotropic) resistance in doxorubicin-selected variants of the human sarcoma cell line MES-SA. Cancer Research, 1985, 45, 4091-4096. […] This will be particularly advantageous in situations involving target cells expressing MDR-1.

[4] = test system: A375 human melanoma xenografts; assay: A375 human melanoma xenograft in nude mice; format: in vivo
Procedure: ORI was tested in a melanoma tumor xenograft tumor models in BALB/c nude mice. […] The xenograft efficacy study would be performed with two drug concentrations. There were four groups of 10 mice. Treatment groups received the maximum tolerated dose (MTD) or ½ MTD of each analogue. […] A positive control group treated with dacarbazine DTIC (dosage of 180 mg/kg i.p. once per day for 5 days) was used to validate this tumor model system.
Female BALB/c nu/nu athymic mice weighing 20 grams were the animal host for the human xenografts. The method of administration was i.p. injections with 9 mM or 4 mM ORI 1313 once daily for the duration of the study (end point when control tumors reached 2000 mg). […] DITC was administered by i.p. injection once daily for 5 days. Treatment started when the tumors reach 5 mm×5 mm size (50 mg). The mouse weight and tumor size were measured twice weekly. The tumor measurements by calipers were then converted to mg tumor volume by the formula L^2×W/2. Once the control tumors reached 2000 mg both the control and treatment group mice were weighed, sacrificed and the tumors removed. The actual weights of tumors were then used to calculate the percent growth inhibition by each analogue using the formula: % growth inhibition=(mean treated tumor weight/mean control tumor weight×100)−100.

BALB/c mice [5] = conditions: mouse, in vivo, ip
Procedure: (§2) Chronic toxicities were evaluated by giving i.p. injections once daily for 5 consecutive days.

MDA-MB-231 cells [6] = assay: Cell cycle analysis by FACS (propidium iodide), apoptotic fraction; format: cell-based, human
Procedure: Cell cycle analysis was performed using fluorescent activated cell sorter (FACS) analysis on polyamine analogue treated MDA cells (see FIGS. 7A-7C). Briefly, MDA-MB-231 cells were grown in the presence of ORI 1313 or ORI 1327 for various times then fixed with ethanol and stained with propidium iodide. Cells were analyzed by FACS, with the areas on the histograms designating DNA content and cell cycle stage: M1, G1; M2, S; M3, G2/M; M4, <2N (apoptotic cells).

[7] = test system: putrescine uptake into PC-3 cells; assay: Inhibition of 3H-putrescine uptake; format: cell-based, human; conditions: read-out: Kiapp versus putrescine uptake into PC-3 cells
[8] = test system: A375 human melanoma cell line; assay: Cytotoxicity against A375 cell line; format: cell-based
BALB/c mice [9] = assay: Acute toxicity, single i.p. injection
Procedure: as §2

MDA cells = assay: NCI 60-cell line screen; format: cell-based, human; conditions: determined by NCI
Procedure: (§1) ORI 1313 and ORI 1327 were evaluated by the National Cancer Institute (NCI) with a 60-cell line screen.

PC-3 cells [10] = assay: NCI 60-cell line screen; format: cell-based, human; conditions: determined by NCI
Procedure: as §1

melanoma cell lines = assay: NCI 60-cell line screen; format: cell-based; conditions: 8 melanoma lines
Procedure: as §1

BALB/c mice [11] = conditions: mouse, in vivo, ip; remark: listed apart in the source
Procedure: as §2

[12] = test system: putrescine uptake into MDA cells; assay: Inhibition of 3H-putrescine uptake; format: cell-based, human; conditions: read-out: Kiapp versus putrescine uptake into MDA cells
cell growth = assay: Co-treatment experiments on analogue cytotoxicity; format: cell-based; conditions: for effect of co-treatment with DFMO on results: 1 mM DFMO; for effect of co-treatment with putrescine on cytotoxic effects: 50-fold excess concentration of putrescine; for effect of co-treatment with ORI 1202 on inhibition of cell growth: polyamine transport inhibitor ORI 1202
[13] = test system: cellular polyamine levels; assay: Intracellular polyamine levels by HPLC; format: cell-based; conditions: 11 hr treatment
Procedure: To determine the effects of treatment with polyamine analogues on cellular polyamine levels, intracellular polyamine levels were measured by high performance liquid chromatography (HPLC) after 11 hr treatment with ORI 1313 (32 μM) or ORI 1327 (3 μM). […] This observation is consistent with the previous observations in the field.

BALB/c mice [14] = assay: Chronic toxicity, i.p. once daily for 5 consecutive days
Procedure: as §2

[15] = test system: [1,4-14C]-putrescine uptake; conditions: Frydman et al.; cited from earlier work
[16] = test system: putrescine uptake into MDA cells; conditions: read-out: Km for uptake into MDA cells; previously shown; cited from earlier work

Compound	IC50 (MDA-MB-231 cells [1]) [µM]	IC50 (SK-MEL-5 cells) [µM]	IC50 (PC-3 cells [2]) [µM]	substrate for the P-gp multi-drug exporter [3]	approximate maximum tolerated dosage (BALB/c mice [5]) [mg/kg]	tolerated dose, chronic (BALB/c mice [5]) [mg/kg]	Ki [7] [µM]	dose that caused death, acute (BALB/c mice [9]) [mg/kg]	IC50 (MDA cells) [µM]	IC50 (PC-3 cells [10]) [µM]	tolerated dose, acute (BALB/c mice [11]) [mg/kg]	increase over N1,N4-dibenzylputrescine in potency of cytotoxic activity against MDA cells (MDA-MB-231 cells [1]) [fold]	effect of co-treatment with DFMO on results (cell growth)	effect of co-treatment with putrescine on cytotoxic effects (cell growth)	effect of co-treatment with ORI 1202 on inhibition of cell growth (cell growth)	lethal dosage, chronic (BALB/c mice [14]) [mg/kg]	further results
c1ccc(CNCCCNCc2ccccc2)cc1 [N^1, N^3-dibenzyl analog of 1,3-diaminopropane, reference compound]	28.8	–	–	–	–	–	–	–	–	–	–	–	–	–	–	–	–
c1ccc2c(CNCCCCNCc3cccc4ccccc34)cccc2c1 [ORI 1313]	12	4.1	20	not substrates	~40	40	24.1	186	2.3	11.2	93	16	did not alter	did not block	did not alter	80	inhibition of growth of PC-3 cells (PC-3 cells [2]; 10 μM ORI 1313 + 5 μM Z-DEVD-fmk): 19%; inhibition of growth of PC-3 cells (PC-3 cells [2]; 10 μM ORI 1313 + 15 μM Z-DEVD-fmk): 10%; inhibition of growth of PC-3 cells (PC-3 cells [2]; 10 μM ORI 1313 alone): 46%; adverse findings in xenograft study ([4]; after 7 weeks of treatment): transient skin ulceration and weight loss; tumor growth inhibition ([4]; at 25 days, vs 5% dextrose control, i.p. once daily): 36%; tolerability in xenograft study ([4]; i.p. once daily, nude mice): well tolerated up to 7 weeks; tumor growth delay ([4]; vs 5% dextrose control, i.p. once daily): 6.2 days; <2N DNA content (apoptotic fraction) (MDA-MB-231 cells [6]; 32 μM, 11 hr treatment): 21%; <2N DNA content (apoptotic fraction) (MDA-MB-231 cells [6]; 32 μM, 24 hr treatment): 49%; <2N DNA content (apoptotic fraction) (MDA-MB-231 cells [6]; 32 μM, 48 hr treatment): 30%; solubility (dihydrochloride salt, in 5% DMSO): at least 40 mM; IC50 [8]: 4.1 µM; effectiveness against melanoma cell lines tested (melanoma cell lines): 6 of 8; Ki [12]: 28.3 µM; effect on cellular polyamine levels ([13]; 32 μM): no significant effects
c1ccc(N(c2ccccc2)c2ccc(CNCCCCNCc3ccc(N(c4ccccc4)c4ccccc4)cc3)cc2)cc1 [ORI 1327]	0.65	0.71	0.65	not substrates	~7.5	7.5	14.3	75	0.005	0.81	37	295	did not alter	did not block	did not alter	30	<2N DNA content (apoptotic fraction) (MDA-MB-231 cells [6]; 3 μM, 11 hr treatment): 15%; solubility relative to lactate salt (dihydrochloride salt): less soluble; solution concentration produced (hydroxypropyl-β-cyclodextrin, 45% w/v HβC in H2O): 40 mM; maximum solubility (lactate salt, aqueous): 5000 µM; effect on cellular polyamine levels ([13]; 3 μM): no significant effects
NCCCCN [Putrescine, 1,4-diaminobutane]	–	–	–	–	–	–	–	–	–	–	–	–	–	–	–	–	Kmapp, putrescine uptake [15]: 5.2 ± 0.6 µM; Km [16]: 12.4 µM

From patent US6872852B2, “Polyamine analogues as cytotoxic agents” (MediQuest Therapeutics, Inc., priority 2000, dated 2005)
